Patent US11254688B2 (Boehringer Ingelheim International GmbH, priority 2018, dated 2022)

Molecular target: T1, hGOAT (Homo sapiens, UniProt Q96T53)
T1 construct: expressed in transfected cells; host or cells: HEK293 (Hek293 hGOAT/PPGhrl Clone #1B8)
T1 sequence (Q96T53 1-435): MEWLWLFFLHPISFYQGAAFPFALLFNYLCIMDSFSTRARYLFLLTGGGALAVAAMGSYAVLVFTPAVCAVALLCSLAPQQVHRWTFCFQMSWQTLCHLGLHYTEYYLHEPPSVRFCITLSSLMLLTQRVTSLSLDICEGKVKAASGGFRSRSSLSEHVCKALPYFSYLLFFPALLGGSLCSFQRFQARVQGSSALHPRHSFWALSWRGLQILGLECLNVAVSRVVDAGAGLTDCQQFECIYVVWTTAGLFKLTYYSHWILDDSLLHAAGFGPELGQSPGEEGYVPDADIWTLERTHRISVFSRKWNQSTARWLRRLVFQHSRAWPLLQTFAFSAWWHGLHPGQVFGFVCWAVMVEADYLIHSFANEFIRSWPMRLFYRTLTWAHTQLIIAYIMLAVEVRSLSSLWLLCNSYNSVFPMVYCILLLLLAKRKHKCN
Assay: Determination of hGOAT activity in HEK293 cells after incubation with test compound (acyl-ghrelin ELISA)
Type: cell-based
Settings: HEK293 cells stably transfected with preproghrelin and human GOAT; octanoate-BSA 100 μM; 5 hours incubation; acyl-ghrelin in medium by ELISA; 8 compound concentrations

Structure (SMILES) | IC50 [nM]
Cc1nc2nonc2c(N)c1Cc1ccc(-c2c[nH]nc2C(F)(F)F)nc1 [Compound 12.10, 5-Methyl-6-({6-[3-(trifluoromethyl)-1H-pyrazol-4-yl]pyridin-3-yl}methyl)-[1,2,5]oxadiazolo[3,4-b]pyridin-7-amine] | 0.437
Cc1nc2nonc2c(N)c1Cc1ccc(-c2c(C)noc2C)n2cnnc12 [Compound 12.11, 6-{[5-(3,5-Dimethyl-1,2-oxazol-4-yl)-[1,2,4]triazolo[4,3-a]pyridin-8-yl]methyl}-5-methyl-[1,2,5]oxadiazolo[3,4-b]pyridin-7-amine] | 1.31
Cc1nc2nonc2c(N)c1Cc1ccc(-c2ccsc2C#N)n2cnnc12 [Compound 12.12, 3-[8-({7-Amino-5-methyl-[1,2,5]oxadiazolo[3,4-b]pyridin-6-yl}methyl)-[1,2,4]triazolo[4,3-a]pyridin-5-yl]thiophene-2-carbonitrile] | 1.25
Cc1nc2nonc2c(N)c1Cc1cccc(N=S(C)(C)=O)c1 [Compound 13.1, {[3-({7-Amino-5-methyl-[1,2,5]oxadiazolo[3,4-b]pyridin-6-yl}methyl)phenyl]imino}dimethyl-λ^6-sulfanone] | 1.54
Cc1nc2nonc2c(N)c1Cc1ccc(C(N)=O)cc1 [Compound 14.1, 4-({7-Amino-5-methyl-[1,2,5]oxadiazolo[3,4-b]pyridin-6-yl}methyl)benzamide] | 6.29
Cc1nc2nonc2c(N)c1Cc1ccc(C(=O)NC2CCOCC2)cc1 [Compound 14.5, 4-({7-Amino-5-methyl-[1,2,5]oxadiazolo[3,4-b]pyridin-6-yl}methyl)-N-(oxan-4-yl)benzamide] | 2.37
Cc1nc2nonc2c(N)c1Cc1ccc(C(=O)NC2(CO)CC2)cc1 [Compound 14.6, 4-({7-Amino-5-methyl-[1,2,5]oxadiazolo[3,4-b]pyridin-6-yl}methyl)-N-[1-(hydroxymethyl)cyclopropyl]benzamide] | 4.27

Continued by falling IC50, values first:

IC50 [nM] | Structure (SMILES)
3.64 | Cc1nc2nonc2c(N)c1Cc1ccc(C(=O)NCc2cnccn2)cc1 [Compound 14.8, 4-({7-Amino-5-methyl-[1,2,5]oxadiazolo[3,4-b]pyridin-6-yl}methyl)-N-[(pyrazin-2-yl)methyl]benzamide]
2.93 | Cc1nc2nonc2c(N)c1Cc1ccc(C(=O)NCC2CN(C)CCO2)cc1 (centres unmarked) [Compound 14.3, 4-({7-Amino-5-methyl-[1,2,5]oxadiazolo[3,4-b]pyridin-6-yl}methyl)-N-[(4-methylmorpholin-2-yl)methyl]benzamide]
2.79 | Cc1nc2nonc2c(N)c1Cc1ccc(-c2ccnn2C)n2cnnc12 [Compound 12.13, 5-Methyl-6-[5-(2-methyl-2H-pyrazol-3-yl)-[1,2,4]triazolo[4,3-a]pyridin-8-ylmethyl]-[1,2,5]oxadiazolo[3,4-b]pyridin-7-ylamine]
2.25 | Cc1nc2nonc2c(N)c1Cc1ccc(C(=O)NCc2ccn(C)n2)cc1 [Compound 14.4, 4-({7-Amino-5-methyl-[1,2,5]oxadiazolo[3,4-b]pyridin-6-yl}methyl)-N-[(1-methyl-1H-pyrazol-3-yl)methyl]benzamide]
1.83 | Cc1nc2nonc2c(N)c1Cc1ccc(C(=O)Nc2cn(C)nc2C(F)(F)F)cc1 [Compound 14.7, 4-({7-Amino-5-methyl-[1,2,5]oxadiazolo[3,4-b]pyridin-6-yl}methyl)-N-[1-methyl-3-(trifluoromethyl)-1H-pyrazol-4-yl]benzamide]
0.665 | Cc1nc2nonc2c(N)c1Cc1ccc(C(=O)N(C)C)cc1 [Compound 14.2, 4-({7-Amino-5-methyl-[1,2,5]oxadiazolo[3,4-b]pyridin-6-yl}methyl)-N,N-dimethylbenzamide]
0.033 | Cc1nc2nonc2c(N)c1Cc1ccc(OC(F)(F)F)c(N=S(C)(C)=O)c1 [Compound 13.2, {[5-({7-Amino-5-methyl-[1,2,5]oxadiazolo[3,4-b]pyridin-6-yl}methyl)-2-(trifluoromethoxy)phenyl]imino}dimethyl-λ^6-sulfanone]
